# Laboratory results: the supplement of paper PMC10307832
# What was measured:
# Assay in all cases: relative viability (nuclei count vs DMSO), 5 days (fraction); higher = more cells survive
# NCI-H520 = test system: NCI-H520
# Method in brief: (§1)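 For relative viability, nuclei counts in treated wells were divided by those in vehicle wells. Lung cancer cell lines had been pin-tool dosed in 1536-well plates the day after seeding and cultured for 5 days, then fixed and stained in one step (final 0.05% Triton X-100, 1% formaldehyde, 1 ug/ml Hoechst) and imaged at 4×. Doses were one drug alone or a fixed anchor-drug dose plus five library-drug doses (not always all listed) in √10 steps, and values are duplicate-plate medians.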
# Calu-6 = test system: Calu-6
# Method in brief: as §1
# EBC-1 = test system: EBC-1
# Method in brief: as §1
# IA-LM = test system: IA-LM
# Method in brief: as §1
# NCI-H1355 = test system: NCI-H1355
# Method in brief: as §1
# NCI-H1703 = test system: NCI-H1703
# Method in brief: as §1
# NCI-H1299 = test system: NCI-H1299
# Method in brief: as §1
# A549 = test system: A549
# Method in brief: as §1
# LCLC-103H = test system: LCLC-103H
# Method in brief: as §1
smiles,measurement,setting,value
NC(=O)Nc1cc(-c2cccc(F)c2)sc1C(=O)N[C@H]1CCCNC1 [AZD7762] + CC1(C)CCC(c2ccc(Cl)cc2)=C(CN2CCN(c3ccc(C(=O)NS(=O)(=O)c4ccc(N[C@H](CCN5CCOCC5)CSc5ccccc5)c(S(=O)(=O)C(F)(F)F)c4)cc3)CC2)C1 [Navitoclax] (partner 0.5 µM),relative viability,NCI-H520; first compound 0.01 µM,1.11
same,relative viability,NCI-H520; first compound 0.03162 µM,1.13
same,relative viability,NCI-H520; first compound 0.1 µM,1.07
same,relative viability,NCI-H520; first compound 0.3162 µM,0.595
same,relative viability,NCI-H520; first compound 1 µM,0.45
same,relative viability,Calu-6; first compound 0.01 µM,0.813
same,relative viability,Calu-6; first compound 0.03162 µM,0.812
same,relative viability,Calu-6; first compound 0.1 µM,0.531
same,relative viability,Calu-6; first compound 0.3162 µM,0.129
same,relative viability,Calu-6; first compound 1 µM,0.091
same,relative viability,EBC-1; first compound 0.01 µM,0.524
same,relative viability,EBC-1; first compound 0.03162 µM,0.427
same,relative viability,EBC-1; first compound 0.1 µM,0.292
same,relative viability,EBC-1; first compound 0.3162 µM,0.299
same,relative viability,EBC-1; first compound 1 µM,0.182
same,relative viability,IA-LM; first compound 0.01 µM,0.992
same,relative viability,IA-LM; first compound 0.03162 µM,0.858
same,relative viability,IA-LM; first compound 0.1 µM,0.915
same,relative viability,IA-LM; first compound 0.3162 µM,0.985
same,relative viability,IA-LM; first compound 1 µM,0.187
same,relative viability,NCI-H1355; first compound 0.01 µM,0.879
same,relative viability,NCI-H1355; first compound 0.03162 µM,1.07
same,relative viability,NCI-H1355; first compound 0.1 µM,0.946
same,relative viability,NCI-H1355; first compound 0.3162 µM,1.01
same,relative viability,NCI-H1355; first compound 1 µM,0.914
same,relative viability,NCI-H1703; first compound 0.01 µM,0.673
same,relative viability,NCI-H1703; first compound 0.03162 µM,0.286
same,relative viability,NCI-H1703; first compound 0.1 µM,0.253
same,relative viability,NCI-H1703; first compound 0.3162 µM,0.178
same,relative viability,NCI-H1703; first compound 1 µM,0.114
same,relative viability,NCI-H1299; first compound 0.01 µM,1.06
same,relative viability,NCI-H1299; first compound 0.03162 µM,1.06
same,relative viability,NCI-H1299; first compound 0.1 µM,1.09
same,relative viability,NCI-H1299; first compound 0.3162 µM,1.08
same,relative viability,NCI-H1299; first compound 1 µM,0.976
same,relative viability,A549; first compound 0.01 µM,1.18
same,relative viability,A549; first compound 0.03162 µM,1.29
same,relative viability,A549; first compound 0.1 µM,1.2
same,relative viability,A549; first compound 0.3162 µM,0.898
same,relative viability,A549; first compound 1 µM,0.269
C=C1C(=O)O[C@@H](CCCCCCCC)[C@@H]1C(=O)O [C-75] + CS(=O)(=O)CCNCc1ccc(-c2ccc3ncnc(Nc4ccc(OCc5cccc(F)c5)c(Cl)c4)c3c2)o1 [Lapatinib] (partner 2 µM),relative viability,NCI-H520; first compound 0.08 µM,0.835
same,relative viability,NCI-H520; first compound 0.253 µM,0.964
same,relative viability,NCI-H520; first compound 0.8 µM,0.703
same,relative viability,NCI-H520; first compound 2.53 µM,0.734
same,relative viability,NCI-H520; first compound 8 µM,0.598
same,relative viability,Calu-6; first compound 0.08 µM,1.03
same,relative viability,Calu-6; first compound 0.253 µM,1.06
same,relative viability,Calu-6; first compound 0.8 µM,1.04
same,relative viability,Calu-6; first compound 2.53 µM,0.894
same,relative viability,Calu-6; first compound 8 µM,0.925
same,relative viability,EBC-1; first compound 0.08 µM,0.259
same,relative viability,EBC-1; first compound 0.253 µM,0.237
same,relative viability,EBC-1; first compound 0.8 µM,0.18
same,relative viability,EBC-1; first compound 2.53 µM,0.243
same,relative viability,EBC-1; first compound 8 µM,0.224
same,relative viability,IA-LM; first compound 0.08 µM,0.816
same,relative viability,IA-LM; first compound 0.253 µM,0.954
same,relative viability,IA-LM; first compound 8 µM,0.476
same,relative viability,NCI-H1355; first compound 0.08 µM,0.939
same,relative viability,NCI-H1355; first compound 0.253 µM,1.08
same,relative viability,NCI-H1355; first compound 0.8 µM,0.884
same,relative viability,NCI-H1355; first compound 2.53 µM,0.943
same,relative viability,NCI-H1355; first compound 8 µM,1.01
same,relative viability,NCI-H1703; first compound 0.08 µM,1.17
same,relative viability,NCI-H1703; first compound 0.8 µM,0.977
same,relative viability,NCI-H1703; first compound 2.53 µM,1.17
same,relative viability,NCI-H1703; first compound 8 µM,0.888
same,relative viability,NCI-H1299; first compound 0.08 µM,0.971
same,relative viability,NCI-H1299; first compound 0.253 µM,1
same,relative viability,NCI-H1299; first compound 0.8 µM,0.935
same,relative viability,NCI-H1299; first compound 2.53 µM,0.946
same,relative viability,NCI-H1299; first compound 8 µM,0.955
same,relative viability,A549; first compound 0.08 µM,1.01
same,relative viability,A549; first compound 0.253 µM,1.1
same,relative viability,A549; first compound 0.8 µM,0.798
same,relative viability,A549; first compound 2.53 µM,0.937
same,relative viability,A549; first compound 8 µM,0.89
C=C1C(=O)O[C@@H](CCCCCCCC)[C@@H]1C(=O)O [C-75] + CC(C)C[C@H](NC(=O)[C@H](Cc1ccccc1)NC(=O)c1cnccn1)B(O)O [Bortezomib] (partner 0.002 µM),relative viability,LCLC-103H; first compound 0.08 µM,1.23
same,relative viability,LCLC-103H; first compound 0.253 µM,0.907
same,relative viability,LCLC-103H; first compound 0.8 µM,1.06
same,relative viability,LCLC-103H; first compound 2.53 µM,0.811
same,relative viability,LCLC-103H; first compound 8 µM,1.18
same,relative viability,NCI-H520; first compound 0.08 µM,0.442
same,relative viability,NCI-H520; first compound 0.253 µM,0.425
same,relative viability,NCI-H520; first compound 0.8 µM,0.578
same,relative viability,NCI-H520; first compound 2.53 µM,0.337
same,relative viability,NCI-H520; first compound 8 µM,0.58
same,relative viability,Calu-6; first compound 0.08 µM,1.01
same,relative viability,Calu-6; first compound 0.253 µM,1.16
same,relative viability,Calu-6; first compound 0.8 µM,1.02
same,relative viability,Calu-6; first compound 2.53 µM,0.92
same,relative viability,Calu-6; first compound 8 µM,0.855
same,relative viability,EBC-1; first compound 0.08 µM,0.57
same,relative viability,EBC-1; first compound 0.253 µM,0.512
same,relative viability,EBC-1; first compound 0.8 µM,0.498
same,relative viability,EBC-1; first compound 2.53 µM,0.505
same,relative viability,EBC-1; first compound 8 µM,0.221
same,relative viability,IA-LM; first compound 0.08 µM,0.79
same,relative viability,IA-LM; first compound 0.253 µM,0.61
same,relative viability,IA-LM; first compound 0.8 µM,0.728
same,relative viability,IA-LM; first compound 2.53 µM,0.736
same,relative viability,IA-LM; first compound 8 µM,0.428
same,relative viability,NCI-H1355; first compound 0.08 µM,1.24
same,relative viability,NCI-H1355; first compound 0.253 µM,1.28
same,relative viability,NCI-H1355; first compound 0.8 µM,1.07
same,relative viability,NCI-H1355; first compound 2.53 µM,1.1
same,relative viability,NCI-H1355; first compound 8 µM,1.21
same,relative viability,NCI-H1703; first compound 0.08 µM,0.506
same,relative viability,NCI-H1703; first compound 0.253 µM,0.435
same,relative viability,NCI-H1703; first compound 0.8 µM,0.31
same,relative viability,NCI-H1703; first compound 2.53 µM,0.292
same,relative viability,NCI-H1703; first compound 8 µM,0.192
same,relative viability,NCI-H1299; first compound 0.08 µM,1.07
same,relative viability,NCI-H1299; first compound 0.253 µM,0.932
same,relative viability,NCI-H1299; first compound 0.8 µM,1.01
same,relative viability,NCI-H1299; first compound 2.53 µM,1.02
same,relative viability,NCI-H1299; first compound 8 µM,1.07
